Source: patent US20100137429A1, “COMPOSITION FOR T[…] TRANSMUCOSAL ADMINISTRATION” (FUJIMOTO CO., LTD., priority 2007, published 2010)
Structures can show the parent of a compound that is named as a salt. Where two headings read alike, the source gives them in different places.

Key:
[1] = Test Example 1: plasma level after single intravenous, subcutaneous and oral administration; type: in vivo, male SD rats; conditions: for bioavailability / Cmax / Tmax / AUC: rat, plasma, fasted male SD rats; for bioavailability: read-out: F (bioavailability); for AUC: trapezoidal method
Method: 0.5 mg/kg of the (−) isomer of the present compound (hydrochloride) (1 mL/kg of 0.5 mg/mL aqueous solution in physiological saline) was administered to the tail vein of each of male SD rats fasted since the previous day, and 5 minutes, 10 minutes, 20 minutes, 30 minutes, 45 minutes, 1 hour, 1.5 hours, 2 hours, 3 hours, 4 hours, and 6 hours after administration, whole blood was collected from the abdominal aorta.
(§1) 1 mg/kg of the (−) isomer of the present compound (hydrochloride) (5 mL/kg of 0.2 mg/mL aqueous solution) was administered subcutaneously to the back of the neck of each of male SD rats fasted since the previous day, and 5 minutes, 10 minutes, 20 minutes, 30 minutes, 1 hour, 1.5 hours, 2 hours, 3 hours, 4 hours, 6 hours, 8 hours and 10 hours after administration, whole blood was collected from the abdominal aorta.
as §1, with “10 mg/kg” for “1 mg/kg”, “(hydrochloride) (10” for “(hydrochloride) (5”, “of 1” for “of 0.2”, “administered forcedly orally” for “administered subcutaneously”, “to” for “to the back of the neck of each of”
The blood collected from each rat was transferred to a blood collecting tube containing 2Na EDTA, then sufficiently mixed by turning the tube upside down, and then centrifuged at 3,000 rpm for 10 minutes, and the obtained plasma was recovered. The plasma was freeze-preserved at −20° C. until analysis. The plasma level of the compound was measured by high performance liquid chromatography (HPLC). As a pharmacokinetic parameter, AUCO-t (area under the blood level-time curve, hereinafter referred to as “AUC”) was calculated by a trapezoidal method, and Cmax (maximum blood concentration) and tmax (time-to-maximum blood concentration) were determined from actual measurement values.

[2] = Test Example 4: plasma and brain homogenate concentrations after oral and intraoral administration; type: in vivo, male SD rats; conditions: rats
Method: The (−) isomer of the present compound (hydrochloride) was administered forcedly orally in a dose of 10 mg/kg (10 mL/kg of 1 mg/mL aqueous solution) to fasted male SD rats, and 5, 15, 30, 60 and 120 minutes after administration, whole blood was collected from the abdominal aorta.
The (−) isomer of the present compound (hydrochloride) was dropped in a dose of 1 mg/kg (0.1 mL/kg of 10 mg/mL aqueous solution) into the oral cavity of each fasted male SD rat anesthetized under ether. In the case of the powder preparation, the preparation which had been weighed so as to be in a dose of 1 mg/kg was placed beneath the tongue of each rat under anesthesia. In either case, the rats were left for 1 minute under anesthesia and then returned to cages, and 5, 15, 30, 60 and 120 minutes after administration, whole blood was collected from the abdominal aorta.
The blood collected from each rat was treated in the same manner as in Test Example 1. After blood collection, blood in the body of each rat was perfused with refrigerated physiological saline, and the cerebrum was excised therefrom. The cerebrum was cut thin with a knife and homogenized in 5 mL physiological saline added per gram of the tissues. 0.5 mL acetonitrile was added to 0.5 mL of the brain homogenate which was then stirred by means of a test tube mixer and centrifuged at 10,000 rpm for 5 minutes, to give a supernatant.
The concentrations of the compound in the plasma and in the brain homogenate were measured by LC/MS/MS. Simultaneously, the metabolites were quantitatively determined by using metabolite standards.

[3] = intraoral 1 mg/kg vs oral 10 mg/kg

In the case of CCCNC(CCC)Cc1cc2ccccc2o1 (single isomer, unassigned; (-)) [(−) isomer of the present compound (hydrochloride), (−)-1-(benzofuran-2-yl)-2-propylaminopentane], the “blood level in the oral administration” value ([1]; oral 10 mg/kg, rats) was “low as compared with the given dose”, the bioavailability ([1]; sc, subcutaneous, 1 mg/kg) was 144% and the bioavailability ([1]; oral, 10 mg/kg) was 4.1%. It also gave a Cmax ([1]; sc, subcutaneous, 1 mg/kg) of 135 ng/mL, a Tmax ([1]; sc, subcutaneous, 1 mg/kg) of 10.2 min and an AUC ([1]; sc, subcutaneous, 1 mg/kg) of 231 ng·h/mL. For the same compound, the Cmax ([1]; intravenous, 0.5 mg/kg) was 94.1 ng/mL, the Tmax ([1]; intravenous, 0.5 mg/kg) was 4.8 min and the AUC ([1]; intravenous, 0.5 mg/kg) was 80 ng·h/mL. The Cmax ([1]; oral, 10 mg/kg) was 86.9 ng/mL, the Tmax ([1]; oral, 10 mg/kg) was 10.2 min and the AUC ([1]; oral, 10 mg/kg) was 65.4 ng·h/mL. The “blood concentration in intraoral administration compared with oral administration” value ([2]; intraoral 1 mg/kg (aqueous solution, powder preparation) vs oral 10 mg/kg) was “equal to or higher than that in the oral administration”, the “metabolites in intraoral administration compared with oral administration” value [2, 3] was “lower metabolites” and the “transferability of the compound to the brain (concentration in the brain homogenate)” value [2, 3] was “significantly higher than in the oral administration”.
